Drawing on patent US9566254B2, “Inhibitors and methods of inhibiting bacterial and viral pathogens” (priority 2010, dated 2017), this text covers EC50 for 32 compounds.

Structures can show the parent of a compound that is named as a salt. Bounds are passed on as bounds.

Common to all, as to test: microbe, parasite or virus in culture
Common to all, as to format: cell-based

One assay has as its system vaccinia virus. To be noted: Orthopoxvirus vaccinia, read-out: Avg Activity (VV).
Another assay deals with La Crosse virus (LACV). The note with it: La Crosse virus, Vero, read-out: Avg Activity (LACV).
A further assay has as its system Chlamydophila caviae. To be noted: Chlamydia caviae, Vero, read-out: Avg Activity (C. Caviae).

As to `COc1cc(NC(=S)NC(=O)C2CCCCC2)ccc1NC(=O)c1ccccc1Cl` [Compound 26, 2-chloro-N-[4-(cyclohexanecarbonyl-carbamothioylamino)-2-methoxy-phenyl]benzamide], the results for the EC50 in the assay with vaccinia virus, in the assay with La Crosse virus (LACV) and in the assay with Chlamydophila caviae were 1 to 10 µM, over 25 µM and 10 to 25 µM, respectively.

Take `COc1cc(NC(=S)NC(=O)c2ccc(C(C)(C)C)cc2)ccc1NC(=O)c1cccc(CN)c1` [Compound 27, 3-(aminomethyl)-N-[4-[(4-tert-butylbenzoyl)-carbamothioylamino]-2-methoxy-phenyl]benzamide hydrochloride]: the figures for the EC50 in the assay with vaccinia virus, in the assay with La Crosse virus (LACV) and in the assay with Chlamydophila caviae were 1 to 10 µM, over 25 µM and under 1 µM, respectively.

Consider `COc1cc(NC(=S)NC(=O)c2ccc(C(C)(C)C)cc2)ccc1NC(=O)c1ccccc1N` [Compound 28, 2-amino-N-[4-[(4-tert-butylbenzoyl)-carbamothioylamino]-2-methoxy-phenyl]benzamide], for which the EC50 in the assay with vaccinia virus is 1 to 10 µM; with La Crosse virus (LACV), over 25 µM; in the assay on Chlamydophila caviae it was under 1 µM.

On to `COc1cc(NC(=S)NC(=O)c2ccc(C(C)(C)C)cc2)ccc1NC(=O)c1ccc(N)cc1` [Compound 32, N-[[4-[(4-aminobenzoyl)amino]-3-methoxy-phenyl]-carbamothioyl]-4-tert-butyl-benzamide hydrochloride], for which the EC50 is 10 to 25 µM in the assay on vaccinia virus, 10 to 25 µM in the assay on La Crosse virus (LACV) and under 1 µM in the assay with Chlamydophila caviae.

As to `CCNC(=S)Nc1ccc(NC(=O)c2ccccc2Cl)c(OC)c1` [Compound 33, 2-chloro-N-[4-(ethylcarbamo-thioylamino)-2-methoxy-phenyl]benzamide], the EC50 with vaccinia virus was 10 to 25 µM; in the assay with La Crosse virus (LACV), over 25 µM; in the assay on Chlamydophila caviae, over 25 µM.

In the case of `CCN(C(=S)NC(=O)c1ccc(C(C)(C)C)cc1)c1ccc(NC(=O)c2ccccc2Cl)c(OC)c1` [Compound 34, N-[4-[(4-tert-butylbenzoyl)-carbamothioyl-ethyl-amino]-2-methoxy-phenyl]-2-chloro-benzamide], the values for the EC50 with vaccinia virus, in the assay on La Crosse virus (LACV) and with Chlamydophila caviae were 10 to 25 µM, over 25 µM and 1 to 10 µM, respectively.

`COC(=O)CC(=O)Nc1ccc(NC(=S)NC(=O)c2ccc(C(C)(C)C)cc2)cc1OC` [Compound 35, methyl 3-[4-[(4-tert-butylbenzoyl)carbamo-thioylamino]-2-methoxy-anilino]-3-oxo-propanoate]: the EC50 in the assay with vaccinia virus is 10 to 25 µM; with La Crosse virus (LACV) it was over 25 µM; in the assay with Chlamydophila caviae, 1 to 10 µM.

Take `CC(C)(C)c1ccc(C(=O)NC(=S)Nc2ccc(Nc3cccnc3)cc2)cc1` [Compound 36, 4-tert-butyl-N-[[4-(3-pyridylamino)phenyl]-carbamothioyl]benzamide hydrochloride]: the EC50 in the assay with vaccinia virus is 10 to 25 µM; in the assay on La Crosse virus (LACV) it was over 25 µM; in the assay with Chlamydophila caviae, under 1 µM.

In the case of `CC(C)(C)c1ccc(C(=O)NC(=S)Nc2ccc(Nc3ccncc3)cc2)cc1` [Compound 38, 4-tert-butyl-N-[[4-(4-pyridylamino)phenyl]-carbamothioyl]benzamide hydrochloride], the EC50 in the assay with vaccinia virus is over 25 µM; in the assay with La Crosse virus (LACV), 1 to 10 µM; in the assay with Chlamydophila caviae, over 25 µM.

As to `Cc1ccc(C(=O)NC(=S)Nc2ccc(NC(=O)c3ccc(C(C)(C)C)cc3)cc2)cc1` [Compound 41, N-[[4-[(4-tert-butylbenzoyl)amino]phenyl]carbamothioyl]-4-methyl-benzamide], the EC50 in the assay with vaccinia virus, in the assay with La Crosse virus (LACV) and with Chlamydophila caviae was under 1 µM each time.

As for `Cc1ccccc1NC(=S)NC(=O)c1ccc(C(C)(C)C)cc1` [Compound 42, 4-tert-butyl-N-(o-tolylcarbamothioyl)-benzamide], the EC50 in the assay on vaccinia virus, in the assay with La Crosse virus (LACV) and with Chlamydophila caviae was under 1 µM each time.

Turning to `CC(C)(C)c1ccc(C(=O)NC(=S)Nc2ccc(NC(=O)c3ccccc3)cc2)cc1` [Compound 43, N-[(4-benzamidophenyl)-carbamothioyl]-4-tert-butyl-benzamide], the EC50 in the assay with vaccinia virus, in the assay on La Crosse virus (LACV) and in the assay on Chlamydophila caviae was under 1 µM in each case.

For the compound `CC(C)(C)c1ccc(C(=O)NC(=S)Nc2cc(C(F)(F)F)ccc2Cl)cc1` [Compound 44, 4-tert-butyl-N-[[2-chloro-5-(trifluoromethyl)phenyl]-carbamothioyl]benzamide], the EC50 in the assay on vaccinia virus, in the assay with La Crosse virus (LACV) and with Chlamydophila caviae was under 1 µM throughout.

In the case of `CC(C)(C)c1ccc(C(=O)NC(=S)Nc2cc(C(C)(C)C)ccc2O)cc1` [Compound 46, 4-tert-butyl-N-[(5-tert-butyl-2-hydroxy-phenyl)-carbamothioyl]benzamide], the EC50 in the assay with vaccinia virus was under 1 µM; with La Crosse virus (LACV) it was 1 to 10 µM; in the assay with Chlamydophila caviae, under 1 µM.

Turning to `Cc1c(Cl)cccc1NC(=S)NC(=O)c1ccc(C(C)(C)C)cc1` [Compound 47, 4-tert-butyl-N-[(3-chloro-2-methyl-phenyl)-carbamothioyl]benzamide], the EC50 in the assay with vaccinia virus was 1 to 10 µM; in the assay on La Crosse virus (LACV) it was under 1 µM; in the assay on Chlamydophila caviae it was under 1 µM.

With `CC(C)(C)c1ccc(C(=O)NC(=S)Nc2cc(Cl)ccc2Cl)cc1` [Compound 50, 4-tert-butyl-N-[(2,5-dichlorophenyl)-carbamothioyl]benzamide], the EC50 with vaccinia virus is 1 to 10 µM; in the assay with La Crosse virus (LACV), 1 to 10 µM; in the assay with Chlamydophila caviae, under 1 µM.

Consider `COc1ccccc1NC(=S)NC(=O)c1ccc(C(C)(C)C)cc1` [Compound 51, 4-tert-butyl-N-[(2-methoxyphenyl)-carbamothioyl]benzamide], for which the EC50 in the assay on vaccinia virus was 1 to 10 µM; with La Crosse virus (LACV) it was 1 to 10 µM; in the assay on Chlamydophila caviae, under 1 µM.

As for `CC(C)(C)c1ccc(C(=O)NC(=S)Nc2cccc(Cl)c2)cc1` [Compound 52, 4-tert-butyl-N-[(3-chlorophenyl)-carbamothioyl]benzamide], the EC50 was 1 to 10 µM in the assay on vaccinia virus, 1 to 10 µM with La Crosse virus (LACV) and under 1 µM with Chlamydophila caviae.

Turning to `CC(C)(C)c1ccc(C(=O)NC(=S)Nc2ccccc2)cc1` [Compound 53, 4-tert-butyl-N-(phenylcarbamothioyl)-benzamide], the figures for the EC50 with vaccinia virus, in the assay with La Crosse virus (LACV) and in the assay on Chlamydophila caviae were 1 to 10 µM, 1 to 10 µM and under 1 µM, respectively.

Consider `Cc1cccc(NC(=S)NC(=O)c2ccc(C(C)(C)C)cc2)c1C` [Compound 54, 4-tert-butyl-N-[(2,3-dimethylphenyl)-carbamothioyl]benzamide], for which the EC50 in the assay on vaccinia virus is 1 to 10 µM; in the assay on La Crosse virus (LACV), 1 to 10 µM; in the assay on Chlamydophila caviae, under 1 µM.

Regarding `Cc1ccc(NC(=S)NC(=O)c2ccc(C(C)(C)C)cc2)cc1C` [Compound 55, 4-tert-butyl-N-[(3,4-dimethylphenyl)-carbamothioyl]benzamide], the EC50 in the assay on vaccinia virus was 1 to 10 µM; with La Crosse virus (LACV) it was 1 to 10 µM; in the assay on Chlamydophila caviae, under 1 µM.

As for `CCOc1ccccc1NC(=S)NC(=O)c1ccc(C(C)(C)C)cc1` [Compound 56, 4-tert-butyl-N-[(2-ethoxyphenyl)-carbamothioyl]benzamide], the EC50 is 1 to 10 µM in the assay with vaccinia virus, 1 to 10 µM in the assay on La Crosse virus (LACV) and under 1 µM in the assay on Chlamydophila caviae.

For `CC(C)C(=O)Nc1cccc(NC(=S)NC(=O)c2ccc(C(C)(C)C)cc2)c1` [Compound 57, 4-tert-butyl-N-[[3-(2-methylpropanoylamino)-phenyl]carbamothioyl]-benzamide], the EC50 in the assay with vaccinia virus was 1 to 10 µM; with La Crosse virus (LACV) it was 1 to 10 µM; in the assay with Chlamydophila caviae, under 1 µM.

For `CC(C)(C)c1ccc(C(=O)NC(=S)Nc2ccccc2[N+](=O)[O-])cc1` [Compound 58, 4-tert-butyl-N-[(2-nitrophenyl)carbamothioyl]-benzamide], the EC50 was 1 to 10 µM in the assay on vaccinia virus, 1 to 10 µM in the assay with La Crosse virus (LACV) and under 1 µM in the assay with Chlamydophila caviae.

In the case of `Cc1ccc(NC(=S)NC(=O)c2ccc(C(C)(C)C)cc2)cc1` [Compound 59, 4-tert-butyl-N-(p-tolylcarbamothioyl)-benzamide], the results for the EC50 in the assay on vaccinia virus, in the assay on La Crosse virus (LACV) and in the assay on Chlamydophila caviae were 1 to 10 µM, 1 to 10 µM and under 1 µM, respectively.

Turning to `CC(C)(C)c1ccc(C(=O)NC(=S)Nc2ccc(N)cc2)cc1` [Compound 60, N-[(4-aminophenyl)-carbamothioyl]-4-tert-butyl-benzamide], the EC50 in the assay with vaccinia virus is 1 to 10 µM; in the assay with La Crosse virus (LACV), 1 to 10 µM; in the assay on Chlamydophila caviae, under 1 µM.

For the compound `CC(C)(C)c1ccc(C(=O)NC(=S)Nc2ccccc2F)cc1` [Compound 61, 4-tert-butyl-N-[(2-fluorophenyl)carbamothioyl]-benzamide], the EC50 in the assay with vaccinia virus, in the assay with La Crosse virus (LACV) and in the assay on Chlamydophila caviae was 1 to 10 µM in each case.

For `CCC(=O)Nc1cccc(NC(=S)NC(=O)c2ccc(C(C)(C)C)cc2)c1` [Compound 62, 4-tert-butyl-N-[[3-(propanoylamino)phenyl]-carbamothioyl]benzamide], the EC50 with vaccinia virus, in the assay with La Crosse virus (LACV) and in the assay with Chlamydophila caviae was 1 to 10 µM throughout.

`Cc1cccc(NC(=S)NC(=O)c2ccc(C(C)(C)C)cc2)c1` [Compound 63, 4-tert-butyl-N-(m-tolylcarbamothioyl)-benzamide]: the EC50 in the assay on vaccinia virus, with La Crosse virus (LACV) and in the assay with Chlamydophila caviae was 1 to 10 µM in each case.

With `CC(C)(C)c1ccc(C(=O)NC(=S)NC2CCCCC2)cc1` [Compound 64, 4-tert-butyl-N-(cyclohexyl-carbamothioyl)benzamide], the EC50 in the assay on vaccinia virus, in the assay with La Crosse virus (LACV) and in the assay with Chlamydophila caviae was 1 to 10 µM each time.

With `Cc1cc(C)cc(NC(=S)NC(=O)c2ccc(C(C)(C)C)cc2)c1` [Compound 65, 4-tert-butyl-N-[(3,5-dimethylphenyl)-carbamothioyl]benzamide], the EC50 in the assay on vaccinia virus, with La Crosse virus (LACV) and with Chlamydophila caviae was 1 to 10 µM in each case.

For the compound `COc1cccc(NC(=S)NC(=O)c2ccc(C(C)(C)C)cc2)c1` [Compound 66, 4-tert-butyl-N-[(3-methoxyphenyl)-carbamothioyl]benzamide], the EC50 is 1 to 10 µM in the assay with vaccinia virus, over 25 µM with La Crosse virus (LACV) and under 1 µM with Chlamydophila caviae.
